# Data: publication PMC6081956 (ChemMedChem, 2018)
# Entries after “also recorded” stand apart in the source; their conditions may differ. Read-outs that look alike come from different tables or passages of the source.
# What was measured:
# [1] = target: T1, PXR-LBD (Homo sapiens, UniProt O75469); assay: biochemical
# T1 sequence (O75469 111-434): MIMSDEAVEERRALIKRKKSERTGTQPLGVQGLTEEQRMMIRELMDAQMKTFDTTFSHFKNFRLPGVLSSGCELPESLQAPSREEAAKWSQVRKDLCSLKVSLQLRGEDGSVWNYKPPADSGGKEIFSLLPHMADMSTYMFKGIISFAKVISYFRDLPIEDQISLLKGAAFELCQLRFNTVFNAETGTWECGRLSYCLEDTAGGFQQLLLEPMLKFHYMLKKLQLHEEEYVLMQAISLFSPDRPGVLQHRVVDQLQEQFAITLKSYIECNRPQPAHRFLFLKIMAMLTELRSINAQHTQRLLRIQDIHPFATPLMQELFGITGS
# [2] = target: T2, PXR-LBD-SRC1p (Homo sapiens, UniProt O75469); assay: Isothermal titration calorimetry; assay type: binding; details: for -TΔS° / ΔH° / ΔG° / N value (stoichiometry, single-site binding model): direct ITC; for -TΔS° / ΔH°: 25°C; for ΔG°: from KD by ΔG° = -RTlnKD
# T2 sequence (O75469 with tags, fused parts or gaps): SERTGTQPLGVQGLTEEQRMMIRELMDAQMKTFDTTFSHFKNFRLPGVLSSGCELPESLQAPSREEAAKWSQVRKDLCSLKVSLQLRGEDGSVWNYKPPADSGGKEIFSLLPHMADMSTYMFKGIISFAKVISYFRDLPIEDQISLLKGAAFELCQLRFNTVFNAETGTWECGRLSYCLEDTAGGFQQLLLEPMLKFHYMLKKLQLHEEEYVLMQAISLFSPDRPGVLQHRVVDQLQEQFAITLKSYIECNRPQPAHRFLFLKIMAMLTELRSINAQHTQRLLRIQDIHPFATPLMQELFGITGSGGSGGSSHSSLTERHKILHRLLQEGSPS
# [3] = target: T2, PXR-LBD-SRC1p; assay: Competitive isothermal titration calorimetry; assay type: binding; details: for ΔG°: from KD of competitive ITC
# [4] = test system: PXR target gene Cyp3a11 mRNA; assay: Cyp3a11 mRNA expression; assay type: cell-based; details: PXR-humanized mouse hepatocytes, 10 µM, 72 h, normalized to GAPDH
# [5] = 129 patients receiving 600 mg of EFV per day, cited from earlier work
# [6] = test system: PXR target gene Cyp3a11 mRNA; assay: Cyp3a11 mRNA expression; assay type: cell-based; details: PXR-null mouse hepatocytes, 10 µM, 72 h
# [7] = test system: CYP3A4 mRNA; assay type: cell-based; details: 10 µM 8-OHEFV co-incubated with 2 µM RIF, 48 h, primary human hepatocytes, p=0.004
Compound,Kd [2] [µM],-TΔS° [2] [kcal/mol•K],ΔH° [2] [kcal/mol],ΔG° [2] [kcal/mol],Kd [3] [µM],ΔG° [3] [kcal/mol],also measured
"COc1ccc(C2Nc3ccc(Cl)cc3[C@@](C#CC3CC3)(C(F)(F)F)O2)cc1 (stereo partly drawn) [analog 9, (S)-6-chloro-4-(cyclopropylethynyl)-2-(4-methoxyphenyl)-4-(trifluoromethyl)-1,4-dihydro-2H-benzo[d][1,3]oxazine]",–,–,–,–,–,–,IC50 [1]: 39.3 ± 24.1 µM
"CCCC#CC1(C(F)(F)F)OC(=O)Nc2ccc(Cl)cc21 (stereo not shown) [analog 4, 6-chloro-4-(pent-1-yn-1-yl)-4-(trifluoromethyl)-1,4-dihydro-2H-benzo[d][1,3]oxazin-2-one]",78.7 ± 15.3,−4.5 ±0.2,-1.1 ± 0.1,-5.6 ± 0.1,–,–,–
"COc1ccc(CNc2ccc(Cl)cc2[C@@](O)(C#CC2CC2)C(F)(F)F)cc1 [analog 6, (S)-2-(5-chloro-2-((4-methoxybenzyl)amino)phenyl)-4-cyclopropyl-1,1,1-trifluorobut-3-yn-2-ol]",–,–,–,–,9.5 ± 2.7,-6.8 ± 0.2,–
"COc1ccc(C(=O)Nc2ccc(Cl)cc2C(O)(C#CC2CC2)C(F)(F)F)cc1 (stereo not shown) [analog 7, N-(4-chloro-2-(4-cyclopropyl-1,1,1-trifluoro-2-hydroxybut-3-yn-2-yl)phenyl)-4-methoxybenzamide]",–,–,–,–,4.2 ± 1.1,-7.3 ± 0.2,"Cyp3a11 mRNA levels, fold change from DMSO control [4]: 37 fold"
"Nc1ccc(Cl)cc1C(=O)C(F)(F)F [analog 10, 1-(2-amino-5-chlorophenyl)-2,2,2-trifluoroethan-1-one]",–,–,–,–,> 400,–,"Cyp3a11 mRNA levels, fold change from DMSO control [4]: no change in the Cyp3a11 mRNA levels"
"O=C1Nc2ccc(Cl)cc2[C@@](C#CC2CC2)(C(F)(F)F)O1 [EFV, (S)-6-chloro-4-(cyclopropylethynyl)-4-(trifluoromethyl)-1,4-dihydro-2H-benzo[d][1,3]oxazin-2-one, reference compound]",–,−4.9 ±0.4,-2.1 ± 0.3,-6.9 ± 0.2,–,–,"plasma concentration ([5]; at 4 weeks ref 7): 10.61 ± 1.11 µM; plasma concentration ([5]; at 16 weeks ref 7): 10.33 ± 0.98 µM; N value (stoichiometry, single-site binding model) [2]: approximately 1.0; Cyp3a11 mRNA abundance [6]: no impact on Cyp3a11 mRNA abundance"
"COc1ccc(CNc2ccc(Cl)cc2[C@](O)(C#CC2CC2)C(F)(F)F)cc1 [analog 5, (R)-2-(5-chloro-2-((4-methoxybenzyl)amino)phenyl)-4-cyclopropyl-1,1,1-trifluorobut-3-yn-2-ol]",–,–,–,–,14.5 ± 4.3,-6.6 ± 0.1,–

# Further lines, with some results ahead:
Kd [2] [µM],-TΔS° [2] [kcal/mol•K],ΔH° [2] [kcal/mol],ΔG° [2] [kcal/mol],Kd [3] [µM],ΔG° [3] [kcal/mol],Compound,also measured
14.9 ± 2.6,−4.8 ±0.3,-1.8 ± 0.1,-6.6 ± 0.1,–,–,"FC(F)(F)[C@@]1(C#CC2CC2)OCNc2ccc(Cl)cc21 [analog 8, (S)-6-chloro-4-(cyclopropylethynyl)-4-(trifluoromethyl)-1,4-dihydro-2H-benzo[d][1,3]oxazine]",–
–,–,–,–,10.5 ± 1.5,-6.8 ± 0.2,"O=C1Cc2ccc(Cl)cc2C(C#CC2CC2)(C(F)(F)F)O1 (stereo not shown) [analog 16, 7-chloro-1-(cyclopropylethynyl)-1-(trifluoromethyl)isochroman-3-one]",–
10.9 ± 1.8,−5.1 ±0.2,-1.6 ± 0.2,-6.8 ± 0.1,–,–,"O=C1Oc2ccc(Cl)cc2C(C#CC2CC2)(C(F)(F)F)O1 (stereo not shown) [analog 15, 6-chloro-4-(cyclopropylethynyl)-4-(trifluoromethyl)-4H-benzo[d][1,3]dioxin-2-one]",–
7.9 ± 7.7,−3.8 ± 1.5,-3.1 ± 1.2,-6.9 ± 0.3,–,–,"O=C1Nc2c(O)cc(Cl)cc2[C@@](C#CC2CC2)(C(F)(F)F)O1 [8-OHEFV, (S)-6-chloro-4-(cyclopropylethynyl)-8-hydroxy-4-(trifluoromethyl)-1,4-dihydro-2H-benzo[d][1,3]oxazin-2-one]","plasma concentration ([5]; at 4 weeks ref 7): 6.51 ± 0.87 µM; plasma concentration ([5]; at 16 weeks ref 7): 6.84 ± 1.06 µM; N value (stoichiometry, single-site binding model) [2]: approximately 1.0; decrease in CYP3A4 mRNA induction as compared to 2 µM RIF alone [7]: ~20%; Cyp3a11 mRNA levels, fold change from DMSO control [4]: did not result in modulation of Cyp3a11 mRNA levels; also recorded: did not result in a change in Cyp3a11 mRNA levels"
